Reference: the supplement of paper PMC10307832

How the values were obtained:
Assay in all cases: relative viability (nuclei count vs DMSO), 5 days (fraction); higher = more cells survive
ABC-1 = tested on: ABC-1
Method in brief: (§1)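 The day after seeding in 1536-well plates, lung cancer cell lines were treated by pin tool with a single drug, or with a fixed anchor-drug dose together with five library-drug doses (not always all listed) in √10 steps. After 5 days, a combined fix-and-stain solution (final 0.05% Triton X-100, 1% formaldehyde, 1 ug/ml Hoechst) was added. Nuclei counted on 4× images gave relative viability as treated counts over vehicle counts, reported as the median of duplicate plates.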

HARA = tested on: HARA
Method in brief: as §1

NCI-H322M = tested on: NCI-H322M
Method in brief: as §1

HOP-62 = tested on: HOP-62
Method in brief: as §1

NCI-H1993 = tested on: NCI-H1993
Method in brief: as §1

NCI-H2170 = tested on: NCI-H2170
Method in brief: as §1

NCI-H2009 = tested on: NCI-H2009
Method in brief: as §1

NCI-H2228 = tested on: NCI-H2228
Method in brief: as §1

EMC-BAC-2 = tested on: EMC-BAC-2
Method in brief: as §1

NCI-H3122 = tested on: NCI-H3122
Method in brief: as §1

SK-MES-1 = tested on: SK-MES-1
Method in brief: as §1

LK-2 = tested on: LK-2
Method in brief: as §1

SW 1573 = tested on: SW 1573
Method in brief: as §1

NCI-H596 = tested on: NCI-H596
Method in brief: as §1

NCI-H1944 = tested on: NCI-H1944
Method in brief: as §1

LXF-289 = tested on: LXF-289
Method in brief: as §1

A-427 = tested on: A-427
Method in brief: as §1

NCI-H727 = tested on: NCI-H727
Method in brief: as §1

PC-3 [JPC-3] = tested on: PC-3 [JPC-3]
Method in brief: as §1

SW 900 = tested on: SW 900
Method in brief: as §1

## O=c1cc(-c2cccc3c2Sc2ccccc2S3)oc(N2CCOCC2)c1 + COc1cc2c(Oc3ccc(NC(=O)C4(C(=O)Nc5ccc(F)cc5)CC4)cc3F)ccnc2cc1OCCCN1CCOCC1 [Foretinib] (partner 0.25 µM)
ABC-1; first compound 0.08 µM
  relative viability: 1.25
ABC-1; first compound 0.253 µM
  relative viability: 1.17
ABC-1; first compound 0.8 µM
  relative viability: 1.2
ABC-1; first compound 2.53 µM
  relative viability: 1.04
ABC-1; first compound 8 µM
  relative viability: 1.31
HARA; first compound 0.08 µM
  relative viability: 0.934
HARA; first compound 0.253 µM
  relative viability: 0.956
HARA; first compound 0.8 µM
  relative viability: 0.961
HARA; first compound 2.53 µM
  relative viability: 0.898
HARA; first compound 8 µM
  relative viability: 0.777
NCI-H322M; first compound 0.08 µM
  relative viability: 0.896
NCI-H322M; first compound 0.253 µM
  relative viability: 1
NCI-H322M; first compound 0.8 µM
  relative viability: 0.885
NCI-H322M; first compound 2.53 µM
  relative viability: 0.858
NCI-H322M; first compound 8 µM
  relative viability: 0.972
HOP-62; first compound 0.08 µM
  relative viability: 1.23
HOP-62; first compound 0.253 µM
  relative viability: 1.27
HOP-62; first compound 0.8 µM
  relative viability: 1.25
HOP-62; first compound 2.53 µM
  relative viability: 1.02
HOP-62; first compound 8 µM
  relative viability: 1.14
NCI-H1993; first compound 0.08 µM
  relative viability: 0.705
NCI-H1993; first compound 0.253 µM
  relative viability: 0.796
NCI-H1993; first compound 0.8 µM
  relative viability: 0.586
NCI-H1993; first compound 2.53 µM
  relative viability: 0.75
NCI-H1993; first compound 8 µM
  relative viability: 0.68
NCI-H2170; first compound 0.08 µM
  relative viability: 1.03
NCI-H2170; first compound 0.253 µM
  relative viability: 1.05
NCI-H2170; first compound 0.8 µM
  relative viability: 1.08
NCI-H2170; first compound 2.53 µM
  relative viability: 0.999
NCI-H2170; first compound 8 µM
  relative viability: 0.983
NCI-H2009; first compound 0.08 µM
  relative viability: 1.23
NCI-H2009; first compound 0.253 µM
  relative viability: 1.21
NCI-H2009; first compound 0.8 µM
  relative viability: 1.15
NCI-H2009; first compound 2.53 µM
  relative viability: 1.12
NCI-H2009; first compound 8 µM
  relative viability: 1.19
NCI-H2228; first compound 0.08 µM
  relative viability: 0.753
NCI-H2228; first compound 0.253 µM
  relative viability: 0.907
NCI-H2228; first compound 0.8 µM
  relative viability: 0.966
NCI-H2228; first compound 2.53 µM
  relative viability: 0.813
NCI-H2228; first compound 8 µM
  relative viability: 1.11
EMC-BAC-2; first compound 0.08 µM
  relative viability: 0.998
EMC-BAC-2; first compound 0.253 µM
  relative viability: 0.987
EMC-BAC-2; first compound 0.8 µM
  relative viability: 1
EMC-BAC-2; first compound 2.53 µM
  relative viability: 1.03
EMC-BAC-2; first compound 8 µM
  relative viability: 1.12
NCI-H3122; first compound 0.08 µM
  relative viability: 0.789
NCI-H3122; first compound 0.253 µM
  relative viability: 1.01
NCI-H3122; first compound 0.8 µM
  relative viability: 1.02
NCI-H3122; first compound 2.53 µM
  relative viability: 0.986
NCI-H3122; first compound 8 µM
  relative viability: 1.01
SK-MES-1; first compound 0.08 µM
  relative viability: 0.952
SK-MES-1; first compound 0.253 µM
  relative viability: 1.13
SK-MES-1; first compound 0.8 µM
  relative viability: 0.645
SK-MES-1; first compound 2.53 µM
  relative viability: 0.611
SK-MES-1; first compound 8 µM
  relative viability: 0.775
LK-2; first compound 0.08 µM
  relative viability: 0.933
LK-2; first compound 0.253 µM
  relative viability: 1.24
LK-2; first compound 0.8 µM
  relative viability: 1.23
LK-2; first compound 2.53 µM
  relative viability: 0.997
LK-2; first compound 8 µM
  relative viability: 1.25
SW 1573; first compound 0.08 µM
  relative viability: 0.8
SW 1573; first compound 0.253 µM
  relative viability: 0.916
SW 1573; first compound 0.8 µM
  relative viability: 0.783
SW 1573; first compound 2.53 µM
  relative viability: 0.989
SW 1573; first compound 8 µM
  relative viability: 1
NCI-H596; first compound 0.08 µM
  relative viability: 0.783
NCI-H596; first compound 0.253 µM
  relative viability: 0.907
NCI-H596; first compound 0.8 µM
  relative viability: 0.969
NCI-H596; first compound 2.53 µM
  relative viability: 0.789
NCI-H596; first compound 8 µM
  relative viability: 0.848
NCI-H1944; first compound 0.08 µM
  relative viability: 0.832
NCI-H1944; first compound 0.253 µM
  relative viability: 0.853
NCI-H1944; first compound 0.8 µM
  relative viability: 0.899
NCI-H1944; first compound 2.53 µM
  relative viability: 0.825
NCI-H1944; first compound 8 µM
  relative viability: 0.951
LXF-289; first compound 0.08 µM
  relative viability: 0.935
LXF-289; first compound 0.253 µM
  relative viability: 1.12
LXF-289; first compound 0.8 µM
  relative viability: 0.974
LXF-289; first compound 2.53 µM
  relative viability: 1.02
LXF-289; first compound 8 µM
  relative viability: 1.1
A-427; first compound 0.08 µM
  relative viability: 1.05
A-427; first compound 0.253 µM
  relative viability: 1
A-427; first compound 0.8 µM
  relative viability: 1.06
A-427; first compound 8 µM
  relative viability: 1.11
NCI-H727; first compound 0.08 µM
  relative viability: 0.552
NCI-H727; first compound 0.253 µM
  relative viability: 0.867
NCI-H727; first compound 0.8 µM
  relative viability: 0.904
NCI-H727; first compound 2.53 µM
  relative viability: 0.842
NCI-H727; first compound 8 µM
  relative viability: 1.21
PC-3 [JPC-3]; first compound 0.08 µM
  relative viability: 1.06
PC-3 [JPC-3]; first compound 0.253 µM
  relative viability: 1.08
PC-3 [JPC-3]; first compound 0.8 µM
  relative viability: 1.16
PC-3 [JPC-3]; first compound 2.53 µM
  relative viability: 1.01
PC-3 [JPC-3]; first compound 8 µM
  relative viability: 1.2
SW 900; first compound 0.08 µM
  relative viability: 0.772
SW 900; first compound 0.253 µM
  relative viability: 1.27
SW 900; first compound 0.8 µM
  relative viability: 1.05
SW 900; first compound 2.53 µM
  relative viability: 0.723
SW 900; first compound 8 µM
  relative viability: 0.648
